In brackets after ≈: the same amount, converted by molar mass. Each block holds one compound with its values, some of them ahead of it.
Legend:
BV-2 = experiment: Antiinflammatory activity in mouse BV2 cells assessed as reduction in LPS-induced nitric oxide production; format: functional, cell-based
C6 = experiment: Neuroprotective activity in rat C6 cells assessed as NGF secretion level; format: functional
Rattus norvegicus [1] = experiment: Anxiolytic activity in rat assessed as number of entries in open arm at 5 mg/kg by elevated plus maze test; format: functional
RAW264.7 = experiment: Antiinflammatory activity in mouse RAW264.7 cells assessed as reduction in LPS-induced nitric oxide production; format: functional, cell-based
Rattus norvegicus [2] = experiment: Anxiolytic activity in rat assessed as increase in time spent in open arm at 5 mg/kg by elevated plus maze test; format: functional
Rattus norvegicus [3] = experiment: Anxiolytic activity in rat assessed as head tips at 5 mg/kg by elevated plus maze test; format: functional
[4] = Hemolytic activity in human Neutrophil at 10 uM relative to control; format: toxicity, cell-based
[5] = Hemolytic activity in human Neutrophil assessed as hemolysis rate at 10 uM relative to control; format: toxicity, cell-based; conditions: human neutrophils, read-out: Activity
[6] = Antioxidant activity assessed as DPPH radical scavenging activity incubated for 30 mins by spectrophotometric analysis; format: functional
[7] = Toxicity in brine shrimp assessed as lethality; conditions: artemia salina

IC50 (BV-2): 19.6 µM
Compound: COc1cc2c(ccc3cc(OC)c(O)c(OC)c32)cc1O
Activity (C6): 162.4%

IC50 (RAW264.7; Mus musculus, RAW264.7): 15.6 µM
Compound: C=Cc1c(C)c(O)cc2ccc3c(C)c(O)ccc3c12
Activity (Rattus norvegicus [1]): >6
Time (Rattus norvegicus [2]): 56.54 s
Activity (Rattus norvegicus [3]): >80

IC50 (RAW264.7; Mus musculus, RAW264.7): 12.7 µM
IC50 (RAW264.7; raw264.7): 10.5 µM
IC50 [6]: 1.7 µM
Compound: C=Cc1cc(O)cc2ccc3c(C)c(O)ccc3c12
Activity [4]: 5.3
hemolysis at 10 µM [5]: 11.3%

Compound: O=P1(N(CCCl)CCCl)NCCCO1 (configuration not stated) [CYCLOPHOSPHAMIDE ANHYDROUS]
LC50 [7]: 16.4 µg/mL (≈ 62.8 µM)
